SMILES strings stand for the structures.

This series is described as follows: gradient 5% acetonitrile 3 min, to 50% in 2 min, to 85% in 15 min, held 3 min, 100 µL/min. The note with it: column: Zorbax Extend-C18 2.1 x 50 mm; eluents: water / acetonitrile, 0.1% formic acid. The gist of the method:
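Retention time was recorded from adduct peaks, which were picked computationally and each inspected manually. Pure standards ran in mixtures of ~100 molecules on HPLC coupled to a quadrupole time-of-flight mass spectrometer, in positive and negative ionization mode, through a Zorbax Extend-C18 column (2.1 × 50 mm, 1.8 μm) at 100 μL/min. Eluents were water and acetonitrile, each with 0.1% formic acid.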
`Cc1cccc(NC(=O)Cn2c(=O)c3cc(C4CC4)nn3c3ncccc32)c1`: the RP-LC retention time was 789 s.
The same measure for `CS(=O)(=O)N1CC(c2nc(-c3cccnc3)no2)C2(CCOCC2)C1` (stereo not drawn): 630 s; for `O=C(C1CCCCC1)N1CCCC(c2n[nH]c(C3CC3)n2)C1` (stereo not drawn): 584 s; for `CCOC(=O)c1c(S(=O)(=O)N2CCC(C(=O)Nc3ccc(F)c(F)c3)CC2)c(C)n(C)c1C`: 890 s.
For `CCn1cc(C(=O)Nc2ccc(F)c(C)c2)c(S(=O)(=O)N2CCSCC2)n1` the value was 1040 s; for `Cc1ccc(C)c(N2CCN(c3ccnc(SCC(=O)Nc4cccc(Cl)c4)n3)CC2)c1`, 999 s.
The same measure for `Cc1ccnc(C(=O)Nc2cccc(Cl)c2Cl)n1`: 866 s; for `CN1c2ccc(F)cc2C(=O)NC12CCN(C(=O)c1ccccc1)CC2`: 726 s; for `NC(=O)c1cc(-c2ccc(F)cc2)nc2ccccc12`: 776 s.
As to `Cc1ccc(CNC(=O)C2(C)Cn3cnc(C(=O)NCc4cccc(C)c4)c3C(=O)N2C2CC2)cc1` (stereo not drawn), the RP-LC retention time came to 813 s.
`CCn1cc(CCNC(=O)NCC(=O)OC)c2cccnc21` displayed an RP-LC retention time of 574 s.
The same measure for `CCOc1ccc2nc(C(=O)NC3CCCCCC3)cn2n1`: 982 s.
For `CC1CCN(c2nc(=O)n(CC(=O)Nc3ccc4c(c3)OCCO4)c3ccccc23)CC1` the value was 812 s; for `Cc1ccc(C)c(NC(=O)c2cc(C(C)C)n3nccc3n2)c1`, 1240 s; for `CCOC(=O)c1c(C)oc2nc(C)nc(N3CCC(c4ccccc4)C3)c12` (stereo not drawn), 1130 s.
For `O=c1oc2c(O)c(O)ccc2c2c1CCCC2` the value was 683 s.
The compound `Cc1ccc(C)c(CNC(=O)Cc2csc3nc(-c4ccc(C)c(C)c4)cn23)c1` yielded an RP-LC retention time of 930 s.
For `COc1ccccc1CCNC(=O)Cc1csc(NC(=O)c2ccco2)n1` the value was 700 s.
On to `Cc1c(C(=O)O)nnn1-c1ccc2c(c1)OCO2`, for which the RP-LC retention time was determined as 639 s.
On to `N#Cc1ccccc1CN1CC[C@@H]2CN(Cc3cccnc3)[C@@H]2C1`, for which the RP-LC retention time is 556 s.
For `CCOc1ccc(Nc2c(-c3ccc(SC)cc3)nc3cnccn23)cc1` the value was 994 s; for `COc1ccc(C2=NC3(CCN(C)CC3)NC(c3cccc(OC)c3O)C2)cc1` (stereo not drawn), 583 s.
The same measure for `CCOC(=O)c1ccccc1NC(=O)Cn1c(-c2ccc(F)cc2)nc(C)cc1=O`: 1320 s; for `Cc1ccc(C)c(N2CCN(S(=O)(=O)c3ccc(-c4nnc(C5CC5)o4)o3)CC2)c1`: 1130 s.
The same measure for `COc1ccc(CNC(=O)C2=C3CCCN3c3ccc(F)cc3S2(=O)=O)cc1OC`: 764 s; for `O=c1c2ccccc2oc2nc(-c3ccco3)n(Cc3ccccc3)c(=O)c12`: 797 s.
For the compound `Nc1cc(C2CCN(C(=O)COc3ccccc3)CC2)no1`, the RP-LC retention time came out at 662 s.
On to `Cc1ccc(Nc2c(-c3nc(C)no3)cnc3nc(C)ccc23)c(C)c1`, for which the RP-LC retention time was found to be 825 s.
The same measure for `Cc1c(Cl)cccc1-n1ccn2cc(-c3ccccc3)nc2c1=O`: 880 s; for `COc1ccccc1C(=O)N1CCc2c(c(-c3nnc(-c4ccccc4Cl)o3)nn2C)C1`: 806 s.
As for `CCc1noc(C2CCCCN2Cc2nc(Cc3ccccc3)no2)n1` (stereo not drawn), the RP-LC retention time came out at 958 s.
Take `Cc1ccc2ccc3ccc(C)nc3c2n1`: the RP-LC retention time turned out to be 589 s.
The same measure for `Cc1sc(-c2noc(C3CC3)n2)cc1S(=O)(=O)N1CCC(C(=O)NCc2ccco2)CC1`: 945 s.

The values above are taken from the METLIN SMRT retention time set (Domingo-Almenara et al. 2019).
